Laboratory results from the supplement of paper PMC4862054.
“And” between values parts separate entries of the source, which are not always exact repeats. Identical values can stand only once.

Legend:
HCC1937 [1] = assay: normalised viability (% of control), CellTiter-Blue; higher = more viable cells (about 100 = DMSO control); conditions: incubation time: 72 h
Procedure, shortened: (§1)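 Vehicle (100) and a positive kill control (0) anchored the normalisation of each plate, and Z'-factor was used for quality control. Breast cancer cell lines in 20 µl suspension were incubated 72 h over compound in 5 µl medium in 384-well plates, followed by CellTiter-Blue at 560/590 nm. The value is normalised viability at a single listed concentration of the series.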

MDA-MB-436 = assay: as above; conditions: incubation time: 72 h
Procedure, shortened: as §1

CAL-85-1 [2] = conditions: 72 h
Procedure, shortened: (§2)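 Plates of 384 wells holding compound in 5 µl medium received breast cancer cell lines in 20 µl suspension and were incubated 72 h. CellTiter-Blue (2.5 µl, 2 h, 37 °C) was used for viability, read at 560/590 nm, and every plate was normalised to vehicle and a positive kill control and assessed by Z'-factor. The EC50 derives from a percent-inhibition dose-response curve fit censored at the highest concentration, leaving out rows whose drug sensitivity score was zero.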

MDA-MB-453 [3] = conditions: 72 h
Procedure, shortened: as §2

CAL-148 [4] = assay: normalised viability (% of control), CellTiter-Blue; higher = more viable cells (about 100 = DMSO control); conditions: incubation time: 72 h
Procedure, shortened: as §1

HDQ-P1 [5] = assay: as above; conditions: incubation time: 72 h
Procedure, shortened: as §1

CAL-85-1 [6] = assay: as above; conditions: incubation time: 72 h
Procedure, shortened: as §1

CAL-51 [7] = assay: as above; conditions: incubation time: 72 h
Procedure, shortened: as §1

DU-4475 = assay: as above; conditions: incubation time: 72 h
Procedure, shortened: as §1

MDA-MB-453 [8] = assay: as above; conditions: incubation time: 72 h
Procedure, shortened: as §1

CAL-148 [9] = assay: normalised response (% of control), CellTiter-Glo; higher = more viable cells (100 = DMSO, 0 = benzethonium chloride kill control); conditions: incubation time: 72 h
Procedure, shortened: (§3)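 After 72 h with compound in 384-well plates, breast cancer cell lines seeded as 20 µl suspension were read for CellTox Green fluorescence at 485/520 nm. CellTiter-Glo luminescence was then read after 10 min at room temperature. Compound was present at 5 concentrations in 10-fold steps over a 10,000-fold range set per compound, and plates were normalised to 0.1 % DMSO (100) and a positive kill control (0). Values are normalised signals, each at a single concentration.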

HDQ-P1 [10] = assay: as above; conditions: incubation time: 72 h
Procedure, shortened: as §3

MDA-MB-231 = assay: as above; conditions: incubation time: 72 h
Procedure, shortened: as §3

HCC1937 [11] = assay: as above; conditions: incubation time: 72 h
Procedure, shortened: as §3

HCC1143 = assay: as above; conditions: incubation time: 72 h
Procedure, shortened: as §3

BT-474 = assay: as above; conditions: incubation time: 72 h
Procedure, shortened: as §3

MDA-MB-468 = assay: as above; conditions: incubation time: 72 h
Procedure, shortened: as §3

CAL-51 [12] = assay: as above; conditions: incubation time: 72 h
Procedure, shortened: as §3

HCC1599 = assay: as above; conditions: incubation time: 72 h
Procedure, shortened: as §3

MFM-223 = assay: as above; conditions: incubation time: 72 h
Procedure, shortened: as §3

| EC50, CellTiter-Blue viability (MDA-MB-453 [3]) | Structure (SMILES) | normalised viability (HCC1937 [1]; 1000 nM) | normalised viability (HCC1937 [1]; 10000 nM) | normalised viability (MDA-MB-436; 10 nM) | normalised viability (MDA-MB-436; 1000 nM) | normalised viability (MDA-MB-436; 10000 nM) | EC50, CellTiter-Blue viability (CAL-85-1 [2]) | normalised viability (CAL-148 [4]) | normalised viability (HDQ-P1 [5]) | normalised viability (CAL-85-1 [6]) | normalised viability (CAL-51 [7]) | normalised viability (DU-4475) | normalised viability (MDA-MB-453 [8]) | normalised response (CAL-148 [9]) | normalised response (HDQ-P1 [10]) | normalised response (MDA-MB-231) | normalised response (HCC1937 [11]) | normalised response (HCC1143) | normalised response (BT-474) | normalised response (MDA-MB-468) | normalised response (CAL-51 [12]) | normalised response (HCC1599) | normalised response (MFM-223) | normalised viability (HCC1937 [1]; 1 nM) | normalised viability (HCC1937 [1]; 100 nM) | normalised viability (MDA-MB-436; 1 nM) | normalised viability (MDA-MB-436; 100 nM) |
| --- | --- | --- | --- | --- | --- | --- | --- | --- | --- | --- | --- | --- | --- | --- | --- | --- | --- | --- | --- | --- | --- | --- | --- | --- | --- | --- | --- |
| 0.0751 µM | CS(=O)(=O)CCNCc1ccc(-c2ccc3ncnc(Nc4ccc(OCc5cccc(F)c5)c(Cl)c4)c3c2)o1 [Lapatinib] | 91.3% and 113% | 35.8% and 53.3% | 92.8% and 106% | 91.3% and 112% | 22.6% and 43.3% | 3.74 µM | – | – | – | – | – | – | – | – | – | – | – | – | – | – | – | – | – | – | – | – |
| – | COC1=CC(c2cc3ccccc3[nH]2)=N/C1=C\c1[nH]c(C)cc1C [Obatoclax] (10000 nM) | – | – | – | – | – | – | 10.8% | 35.5% | 22.1% | 6.23% | 30% | 18.6% | 76.5% | 91.1% | 66.9% | 67.7% | 92% | 70.5% | 79.3% | 7.62% | 88.2% | 71.2% | – | – | – | – |
| – | CCOc1cc2ncc(C#N)c(Nc3ccc(OCc4ccccn4)c(Cl)c3)c2cc1NC(=O)/C=C/CN(C)C [Neratinib] (1000 nM) | – | – | – | – | – | – | 79.5% | 116% | 101% | 92.5% | 105% | 75.8% | 68.8% | 46.3% | 74.2% | 66.1% | 72.7% | 79.1% | 36.4% | 45% | 95.5% | 62.8% | – | – | – | – |
| – | CN1CCN(c2ccc3nc(-c4c(N)c5c(F)cccc5[nH]c4=O)[nH]c3c2)CC1 [Dovitinib] (10000 nM) | – | – | – | – | – | – | 88.5% | 96.4% | 87.1% | 108% | 96.7% | 79% | 88.1% | 89.8% | 94% | 88% | 90.1% | 91.5% | 78.1% | 127% | 102% | 77.6% | – | – | – | – |
| – | COc1ccc(C2=N[C@@H](c3ccc(Cl)cc3)[C@@H](c3ccc(Cl)cc3)N2C(=O)N2CCNC(=O)C2)c(OC(C)C)c1 [Nutlin-3] (10000 nM) | – | – | – | – | – | – | 57.3% | 111% | 86.6% | 53.3% | 36.1% | 90% | 71.4% | 97.1% | 91.9% | 97.6% | 92.9% | 93.3% | 78.9% | 50.7% | 98.5% | 93.3% | – | – | – | – |
| – | CC(=O)O[C@H]1C(=O)[C@@]2(C)[C@H]([C@H](OC(=O)c3ccccc3)[C@]3(O)C[C@H](OC(=O)[C@H](O)[C@@H](NC(=O)c4ccccc4)c4ccccc4)C(C)=C1C3(C)C)[C@]1(OC(C)=O)CO[C@@H]1C[C@@H]2O [Paclitaxel] (1000 nM) | – | – | – | – | – | – | 14.7% | 32.7% | 33.1% | 10.7% | 1.41% | 21% | 44.1% | 61.2% | 25.3% | 64.7% | 31.2% | 29.5% | 23.9% | 26.2% | 33.6% | 38.8% | – | – | – | – |
| – | CC(C)(C)c1cc(NC(=O)Nc2ccc(-c3cn4c(n3)sc3cc(OCCN5CCOCC5)ccc34)cc2)no1 [Quizartinib] (1000 nM) | – | – | – | – | – | – | 91.3% | 111% | 89.6% | 103% | 112% | 60.2% | 108% | 103% | 113% | 104% | 108% | 101% | 114% | 125% | 88.6% | 105% | – | – | – | – |
| – | O=c1[nH]cc(F)c(=O)[nH]1 [Fluorouracil] (10000 nM) | – | – | – | – | – | – | 55.4% | 74.4% | 58.3% | 47.9% | 75.2% | 72.9% | 88.6% | 91.8% | 82.2% | 72.8% | 76% | 92.7% | 77.4% | 85.3% | 93.8% | 105% | – | – | – | – |
| – | CCS(=O)(=O)c1cccc(-c2cc(C(=O)NC3CCN(C)CC3)c(C)c3[nH]c4ncc(C)cc4c23)c1 [TAK-901] (1000 nM) | – | – | – | – | – | – | 105% | 16.6% | 30.9% | 23.8% | 41.2% | 40.2% | 92.8% | 39.4% | 23% | 64.5% | 44.4% | 31.6% | 36.4% | 49.8% | 82.3% | 45.9% | – | – | – | – |
| – | O=C(c1ccc(OCCN2CCCCC2)cc1)c1c(-c2ccc(O)cc2)sc2cc(O)ccc12 [Raloxifene] (10000 nM) | – | – | – | – | – | – | 125% | 105% | 98.6% | 105% | 113% | 45.7% | 99.4% | 86.8% | 68.5% | 79.1% | 101% | 62.3% | 46.1% | 104% | 49.1% | 62.5% | – | – | – | – |
| 0.0125 µM | CCOc1cc2ncc(C#N)c(Nc3ccc(OCc4ccccn4)c(Cl)c3)c2cc1NC(=O)/C=C/CN(C)C [Neratinib] | 96.3% | – | – | 110% | – | – | – | – | – | – | – | – | – | – | – | – | – | – | – | – | – | – | 80.3% | 99.5% | 104% | 108% |
